Experimental data reported in US9073863B2, “Cyanoquinoline compounds having activity in correcting mutant-CFTR processing and increasing ion transport and uses thereof” (The Regents of the University of California, priority 2011, dated 2015).

How the values were obtained:
Type in all cases: cell-based
[1] = target: T1, ΔF508-CFTR (Homo sapiens, UniProt P13569, DEL508-508); experiment: Short-circuit current potentiator assay in ΔF508-CFTR expressing FRT cells after low-temperature rescue; details: 27° C. for 24 h prior to measurement, in the presence of forskolin; read-out: Apparent EC50 for potentiator activity as measured by short-circuit current
T1 construct: expressed in transfected cells; host or cells: Fischer rat thyroid (FRT) epithelial cells, stably transfected
Method: Short-circuit current measurements. ΔF508-CFTR-expressing FRT cells were cultured on Snapwell inserts for 7-9 days. For corrector testing, test compounds were incubated with FRT cells for 18-24 h at 37° C. prior to measurements. For potentiator testing, the FRT cells were incubated for 18-24 h at 27° C. prior to measurements. The basolateral solution contained 130 mM NaCl, 2.7 mM KCl, 1.5 mM KH2PO4, 1 mM CaCl2, 0.5 mM MgCl2, 10 mM glucose, and 10 mM Na-HEPES (pH 7.3). In the apical bathing solution, 65 mM NaCl was replaced by Na gluconate, and CaCl2 was increased to 2 mM. Solutions were bubbled with air and maintained at 37° C. […]
Short-circuit current measurements were performed to further characterize Compound 22 potentiator activity in which apical membrane chloride current was measured in ΔF508-CFTR expressing FRT cells, after low-temperature rescue, in response to Compound 22 additions. […]
(§1) Short-circuit current was measured in an electrophysiology assay to verify corrector activity. Apical membrane chloride current was measured in ΔF508-CFTR expressing FRT cells after basolateral membrane permeabilization and in the presence of a transepithelial chloride gradient. […] To assay potentiator activity apical membrane chloride current was measured after low-temperature rescue, in response to CP-3 addition. […]

[2] = target: T1, ΔF508-CFTR; experiment: Short-circuit current (apical membrane chloride current) corrector assay in ΔF508-CFTR expressing FRT cells
Method: Short-circuit current measurements. ΔF508-CFTR-expressing FRT cells were cultured on Snapwell inserts for 7-9 days. For corrector testing, test compounds were incubated with FRT cells for 18-24 h at 37° C. prior to measurements. For potentiator testing, the FRT cells were incubated for 18-24 h at 27° C. prior to measurements. The basolateral solution contained 130 mM NaCl, 2.7 mM KCl, 1.5 mM KH2PO4, 1 mM CaCl2, 0.5 mM MgCl2, 10 mM glucose, and 10 mM Na-HEPES (pH 7.3). In the apical bathing solution, 65 mM NaCl was replaced by Na gluconate, and CaCl2 was increased to 2 mM. Solutions were bubbled with air and maintained at 37° C. The basolateral membrane was permeabilized with 250 μg/ml amphotericin B. Hemichambers were connected to a DVC-1000 voltage clamp (World Precision Instruments Inc.) via Ag/AgCl electrodes and 1 M KCl agar bridges for recording of short-circuit current.
Short-circuit current was measured as a definitive electrophysiological assay to verify Compound 22 corrector action. Apical membrane chloride current was measured in ΔF508-CFTR expressing FRT cells after basolateral membrane permeabilization and in the presence of a transepithelial chloride gradient (apical, 65 mM; basolateral, 130 mM). In FIG. 3C, incubation with Corr-4a (5 μM) is shown as reference (right). Forskolin (20 μM), genistein (50 μM) and CFTRinh-172 (10 μM) were added where indicated. […] FIG. 3D summarizes Compound 22 concentration dependence data from short-circuit current studies. […]
as §1, with “addition. CP-3 concentration-dependent increases in apical membrane current were measured in the presence of 5 μM forskolin.” for “addition.”

[3] = target: T2, G551D-CFTR (Homo sapiens, UniProt P13569, G551D); experiment: Short-circuit current in FRT cells expressing G551D-CFTR; details: in the presence of forskolin, vs genistein
T2 construct: expressed in transfected cells; host or cells: Fischer rat thyroid (FRT) epithelial cells, stably transfected
Method: Potentiator studies were also performed in FRT cells expressing G551D-CFTR, a CF-causing CFTR mutation with defective channel gating but not plasma membrane trafficking. […] Where indicated, genistein (100 μM) and CFTRinh-172 (10 μM) were added. Graphs are representative of 3 sets of measurements. […] Measurements were made in the presence of 20 μM forskolin.

[4] = target: T3, wildtype CFTR (Homo sapiens, UniProt P13569); experiment: Short-circuit current in FRT cells expressing wildtype CFTR; details: added after 0.25 or 0.5 μM forskolin
T3 construct: expressed in transfected cells; host or cells: Fischer rat thyroid (FRT) epithelial cells, stably transfected
Method: To further investigate Compound 22 potentiator action, short-circuit current was measured in FRT cells expressing wildtype CFTR (FIG. 5B). Studies were done as in FIG. 5A except that low concentrations of forskolin (0-0.5 μM) were used because higher concentrations fully activate wildtype CFTR and thus would mask Compound 22 potentiator action. As found for ΔF508-CFTR, there was little effect of Compound 22 in the absence of forskolin. In each experiment, after Compound 22 additions, 10 μM forskolin was added to fully activate wildtype CFTR, followed by 50 μM genistein, which had little effect, followed by 10 μM CFTRinh-172, which inhibited all chloride current.

[5] = target: T1, ΔF508-CFTR; experiment: CFTR immunoblot of ΔF508-CFTR expressing FRT cells; details: 24 h at 37° C.
Method: CFTR Immunoblot. DF508-CFTR expressing FRT cells grown on 6-well plates were treated with Corr-4a ([…]), Compound 22 […] or negative control at 37° C. for 24 h. After treatment, cells were washed with PBS and lysed in 20 mM Hepes (pH 7), 150 mM NaCl, 1 mM EGTA and 1% Igepal containing Complete Protease Inhibitor Cocktail (Roche). After pre-clearing, lysates were subjected to SDS-PAGE and analyzed by immunoblot. Proteins were immunodetected using a mouse monoclonal anti-CFTR antibody (M3A7, Millipore) followed by HRP-conjugated anti-mouse IgG, and visualized by chemiluminescence (ECL Plus, Amersham).
The action of Compound 22 as corrector of defective ΔF508-CFTR cellular processing was verified by CFTR immunoblot analysis (FIG. 4C). Wildtype CFTR was detected as a strong band at 170 kDa (band C), corresponding to complex glycosylated CFTR. […] Band B, which corresponds to core-glycosylated ΔF508-CFTR, was also seen.

T1 sequence (P13569 with tags, fused parts or gaps DEL508-508): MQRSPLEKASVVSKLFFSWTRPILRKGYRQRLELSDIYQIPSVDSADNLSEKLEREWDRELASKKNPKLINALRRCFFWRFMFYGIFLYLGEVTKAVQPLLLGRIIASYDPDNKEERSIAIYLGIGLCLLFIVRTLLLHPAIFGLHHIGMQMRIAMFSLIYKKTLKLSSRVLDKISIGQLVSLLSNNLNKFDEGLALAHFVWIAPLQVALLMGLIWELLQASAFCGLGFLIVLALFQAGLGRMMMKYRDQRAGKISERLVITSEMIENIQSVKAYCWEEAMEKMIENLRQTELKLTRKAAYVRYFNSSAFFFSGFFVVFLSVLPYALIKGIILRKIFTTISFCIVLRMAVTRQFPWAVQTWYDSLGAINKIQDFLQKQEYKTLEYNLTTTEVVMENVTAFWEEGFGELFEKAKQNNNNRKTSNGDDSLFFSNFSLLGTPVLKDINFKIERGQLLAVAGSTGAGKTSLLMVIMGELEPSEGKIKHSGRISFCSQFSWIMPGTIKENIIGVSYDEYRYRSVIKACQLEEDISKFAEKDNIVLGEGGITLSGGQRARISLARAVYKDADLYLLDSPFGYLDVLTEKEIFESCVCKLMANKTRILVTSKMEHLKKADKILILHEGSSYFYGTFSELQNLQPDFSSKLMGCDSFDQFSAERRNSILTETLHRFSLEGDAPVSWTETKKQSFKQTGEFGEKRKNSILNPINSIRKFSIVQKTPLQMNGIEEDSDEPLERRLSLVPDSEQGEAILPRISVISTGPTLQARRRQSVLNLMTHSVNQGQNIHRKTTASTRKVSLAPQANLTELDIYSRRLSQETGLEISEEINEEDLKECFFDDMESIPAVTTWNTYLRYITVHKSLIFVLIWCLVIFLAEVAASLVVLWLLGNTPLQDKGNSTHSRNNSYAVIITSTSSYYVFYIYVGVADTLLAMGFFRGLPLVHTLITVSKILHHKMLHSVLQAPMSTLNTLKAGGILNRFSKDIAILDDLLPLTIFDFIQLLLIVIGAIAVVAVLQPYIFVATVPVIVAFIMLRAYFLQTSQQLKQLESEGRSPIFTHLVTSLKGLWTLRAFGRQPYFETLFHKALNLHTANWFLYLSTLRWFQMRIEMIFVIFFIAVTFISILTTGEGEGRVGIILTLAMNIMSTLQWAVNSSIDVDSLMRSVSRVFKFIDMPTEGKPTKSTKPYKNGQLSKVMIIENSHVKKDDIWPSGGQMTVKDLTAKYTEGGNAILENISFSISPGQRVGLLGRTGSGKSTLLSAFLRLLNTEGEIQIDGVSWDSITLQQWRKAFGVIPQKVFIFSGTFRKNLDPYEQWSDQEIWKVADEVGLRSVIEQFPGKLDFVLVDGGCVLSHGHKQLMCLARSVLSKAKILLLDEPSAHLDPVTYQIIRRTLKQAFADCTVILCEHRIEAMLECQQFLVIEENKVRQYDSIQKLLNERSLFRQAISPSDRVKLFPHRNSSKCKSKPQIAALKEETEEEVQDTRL
T3 sequence (P13569 whole entry): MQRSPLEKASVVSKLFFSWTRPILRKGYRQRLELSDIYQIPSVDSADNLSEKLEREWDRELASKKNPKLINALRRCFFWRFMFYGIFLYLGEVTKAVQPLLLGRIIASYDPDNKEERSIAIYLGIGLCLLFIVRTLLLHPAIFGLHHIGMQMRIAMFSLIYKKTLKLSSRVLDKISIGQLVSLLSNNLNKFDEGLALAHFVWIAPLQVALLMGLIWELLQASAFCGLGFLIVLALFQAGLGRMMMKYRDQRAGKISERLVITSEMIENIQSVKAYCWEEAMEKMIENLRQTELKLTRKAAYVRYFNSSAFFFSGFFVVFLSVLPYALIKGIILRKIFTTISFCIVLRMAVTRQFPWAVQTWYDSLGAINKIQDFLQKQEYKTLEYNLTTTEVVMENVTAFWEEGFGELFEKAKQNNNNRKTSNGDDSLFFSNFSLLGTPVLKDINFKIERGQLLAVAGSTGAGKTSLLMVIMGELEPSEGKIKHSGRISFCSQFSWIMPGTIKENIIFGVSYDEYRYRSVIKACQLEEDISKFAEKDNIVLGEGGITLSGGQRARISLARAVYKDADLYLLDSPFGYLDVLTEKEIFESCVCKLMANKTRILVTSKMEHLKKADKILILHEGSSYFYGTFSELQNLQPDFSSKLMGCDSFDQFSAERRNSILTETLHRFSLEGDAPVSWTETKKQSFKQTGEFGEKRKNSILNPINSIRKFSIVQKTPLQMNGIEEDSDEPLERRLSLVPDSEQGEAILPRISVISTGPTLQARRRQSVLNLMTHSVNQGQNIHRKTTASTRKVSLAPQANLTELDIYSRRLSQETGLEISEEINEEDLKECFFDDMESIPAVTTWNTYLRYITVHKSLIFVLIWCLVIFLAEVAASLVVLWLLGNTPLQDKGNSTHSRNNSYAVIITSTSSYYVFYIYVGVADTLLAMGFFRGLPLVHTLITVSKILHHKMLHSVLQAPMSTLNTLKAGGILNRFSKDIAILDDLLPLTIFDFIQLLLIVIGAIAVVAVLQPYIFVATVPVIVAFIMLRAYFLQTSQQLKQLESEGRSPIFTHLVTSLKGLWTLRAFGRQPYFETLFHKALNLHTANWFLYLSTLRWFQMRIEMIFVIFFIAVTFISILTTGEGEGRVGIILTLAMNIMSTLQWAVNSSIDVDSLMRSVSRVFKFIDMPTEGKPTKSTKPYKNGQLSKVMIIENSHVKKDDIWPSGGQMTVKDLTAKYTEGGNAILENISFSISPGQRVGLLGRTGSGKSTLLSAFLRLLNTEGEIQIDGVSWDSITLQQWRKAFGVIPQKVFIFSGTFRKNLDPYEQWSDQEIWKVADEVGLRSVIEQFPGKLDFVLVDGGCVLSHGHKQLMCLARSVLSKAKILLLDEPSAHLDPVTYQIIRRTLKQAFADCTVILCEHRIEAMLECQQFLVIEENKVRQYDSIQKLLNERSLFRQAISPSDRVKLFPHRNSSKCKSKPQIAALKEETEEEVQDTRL
T2 sequence (P13569 whole entry G551D): as the sequence (P13569 whole entry) above, with G551D counted along it

COc1cccc(C(=O)NCCNc2nc3cc(C)cc(C)c3cc2C#N)c1 [Compound 22, N-(2-((3-Cyano-5,7-dimethylquinolin-2-yl)amino)ethyl)-3-methoxybenzamide]
EC50 [1]: ~10 µM
increase in apical membrane current (corrector) ([2]; 5 and 10 μM, 18-24 h incubation): comparable to that conferred by 5 μM Corr-4a
corrector and potentiator maximum efficacy ([2]; electrophysiological analysis): comparable to those of the bithiazole Corr-4a and the flavone genistein
potentiator action on G551D-CFTR chloride current [3]: weak potentiator
activation of wildtype CFTR, in words [4]: partially activated
EC50 ([4]; read-out: EC50 of wildtype CFTR activation): ~10 µM
complex glycosylated CFTR (band C) in immunoblot [5]: band C was visualized
